Consider 10 compounds from PMC10641811 (Journal of Medicinal Chemistry, 2023).

Data set [1] has as its system diacylglycerol kinase α (DGKα). Conditions: at 5 μM; cited from earlier work.
The subject of data set [2] is δ-isozyme of DGK. Conditions: at 5 μM; cited from earlier work.
Data set [3] has as its system κ-isozyme of DGK. Conditions: at 5 μM; cited from earlier work.
Data set [4] concerns ι-isozyme of DGK. To be noted: at 5 μM; cited from earlier work.
The format of data set [5] is physicochemical. Conditions: for discoloration of solutions prepared for NMR: DMSO-d6 or CDCl3, ambient temperature; for discoloration when dissolved in DMSO: 5 days at ambient temperature.
Data set [6] concerns ABCC2. Conditions: read-out: IC50 in at least one assay; cited from earlier work.
The target of data set [7] is MSN/CD44 (Homo sapiens, UniProt P26038). The format is binding. To be noted: for activity in MSN/CD44 TR-FRET assay: in words. For orientation: In TR-FRET formats the signal depends on donor and acceptor labels being close together.
In data set [8] the test system is IspF domain. Conditions: cited from earlier work.
Data set [9] has as its system H. pylori. Conditions: cited from earlier work.
Data set [10] concerns Shank3 PDZ domain. To be noted: read-out: Shank3 IC50; cited from earlier work.
The target in data set [11] is NS5. To be noted: read-out: NS5 Ki; cited from earlier work.
In data set [12] the test system is cell cycle progression. Conditions: at ≥30 μM; cited from earlier work.
For data set [13], the system named is EZH2-EED interaction. To be noted: cited from earlier work.
Data set [14] relates to WT PRC2-EZH2. To be noted: cited from earlier work.

A value given as a limit tells only on which side of the number the result lay.

Sequence of MSN/CD44 (P26038 2-295): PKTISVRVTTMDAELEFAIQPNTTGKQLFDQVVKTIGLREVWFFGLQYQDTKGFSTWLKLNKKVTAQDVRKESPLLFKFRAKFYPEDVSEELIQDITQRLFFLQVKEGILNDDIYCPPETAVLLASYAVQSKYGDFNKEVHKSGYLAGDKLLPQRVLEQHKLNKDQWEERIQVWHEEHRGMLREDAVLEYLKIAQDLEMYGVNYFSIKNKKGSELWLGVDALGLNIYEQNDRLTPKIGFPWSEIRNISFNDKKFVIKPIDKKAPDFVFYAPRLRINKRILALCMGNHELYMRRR

Regarding `CC(=O)c1ccc2c(c1)C1C=CCC1C(C(=O)O)N2` (centres unmarked) [CU-4], in data set [1], the “inhibition of α-isozyme of DGK” value is given as “strongly inhibit”. Also, the “inhibition of δ-isozyme of DGK” value in [2] was “strongly inhibit”. The “inhibition of κ-isozyme of DGK” value in data set [3] was “strongly inhibit”. Also, in data set [4], the “inhibition of ι-isozyme of DGK” value is “strongly inhibit”.

`CCOC(=O)c1ccc2c(c1)C1C=CCC1C(C(=O)OCC)N2` (centres unmarked) [Compound 1, Diethyl 3a,4,5,9b-tetrahydro-3H-cyclopenta[c]quinoline-4,8-dicarboxylate]: the “1H NMR analysis of samples kept in CDCl3” value in [5] (CDCl3, 120 h in light) is “no significant changes in the spectra”. In addition, in [5] (DMSO-d6, dark, 72 h, 5 mg), the “stability in solution kept in the dark” value is given as “remained a clear solution”. Also, the “stability in solution kept in the light” value in [5] (DMSO-d6, light, 72 h, 25 mg and 5 mg) was “decomposed and changed color (purple)”. In addition, the “discoloration of solutions prepared for NMR” value in [5] (72 h) is “Discoloration”.

`O=C(O)C1Nc2c(F)cccc2C2C=CCC12` (centres unmarked) [Compound 1e]: the IC50 (commonly the point on the concentration scale where inhibition reaches its midpoint) in data set [6] is less than 30 µM.

Take `CCOC(=O)c1ccc2c(c1)C1CCCC1C(C(=O)OCC)N2` (centres unmarked) [Compound 2]: the “activity in MSN/CD44 TR-FRET assay” value in data set [7] is “inactive”. In addition, the “discoloration when dissolved in DMSO” value in [5] is “No discoloration”.

Take `O=C(O)c1ccc2c(c1)C1CCCC1C(C(=O)O)N2` (centres unmarked) [Compound 3]: the “activity in MSN/CD44 TR-FRET assay” value in [7] was “inactive”. Also, the “discoloration when dissolved in DMSO” value in [5] is given as “No discoloration”.

Regarding `O=C(O)C1Nc2ccc(Oc3ccccc3)cc2C2C=CCC12` (centres unmarked) [Compound 27], in data set [8], the “inhibitory effect in IspF domain assay” value was “did not show an inhibitory effect”. Also, the “inhibition of H. pylori growth” value in data set [9] is listed as “only a weak inhibitor”.

On to `O=C(O)[C@@H]1Nc2c(O)cc(Cl)c([N+](=O)[O-])c2[C@@H]2C=CC[C@H]12` [Compound 34], for which, in data set [10], the IC50 is less than 250 µM.

For the compound `O=C(O)C1Nc2c(I)cccc2C2C=CCC12` (centres unmarked) [Compound 5660163], in data set [11], the Ki (in general, the equilibrium dissociation constant of an inhibitor or competing ligand from its target) was less than 10 µM.

Regarding `O=C(O)c1ccc2c(c1)C1C=CCC1C(C(=O)O)N2` (centres unmarked) [Compound 5661118], the Hill coefficient (usually a measure of the steepness of the concentration-response curve) in data set [7] (MSN/CD44 TR-FRET dose–response curve) is given as 3.4. In addition, in data set [5] (DMSO (10 mM)), the “discoloration of solution prepared for biological evaluation” value is reported as “same discoloration”. Moreover, in data set [5] (72 h), the “discoloration of solutions prepared for NMR” value is reported as “Discoloration”. In addition, in data set [12], the cell cycle arrest entry is “failed to elicit cell cycle arrest”.

Take `O=C(O)c1cc(-c2ccccn2)c2c(c1)C1C=CCC1C(C(=O)O)N2` (centres unmarked) [WNN2074-A009]: in data set [13], the “inhibition of the EZH2-EED interaction” value is “weak”. The “inhibition of WT PRC2-EZH2” value in data set [14] is “inhibited”.
